Assay results published in publication PMC8776894 (Communications Biology, 2022).
Several values for one entry are separate records, joined by “and”; a condition that tells them apart may be missing. Equal values may be shown once.

Columns and labels:
Assay type in all cases: in vivo, mouse
MCAO/R mice [1] = experiment: Grip test; parameters: grip test (Fig.2g): unit not given here; conditions: for grip test (Fig.2g): individual animals
Protocol: The grip strength (The Chatillon® DFE Digital Force Gauge DFX-050) was used to evaluate the effects of VK on muscular incoordination of mice. The forelimbs of the mice were placed on the test grid and the mice were gently pulled after the animals were grasped and the force value when the claws of the animals were recorded was the grip value. The test was performed at 24 and 48 h after MCAO/R.

MCAO/R mice [2] = experiment: Morris water maze test; conditions: for Morris water maze latency to the platform (sheet block Fig.2h): individual animals
Protocol: To evaluate the spatial learning and memory ability of mice, the Morris water maze was performed after MCAO/R at 11, 12, 13, 14, and 15 days as described previously with minor modifications[66],[67]. […] Three trials were performed per day with the platform present and continuously detected for 4 days. Data from those trials were shown as the latency to locate the hidden platform on each day and were in indirect proportion to spatial learning abilities. A single 60 s probe test was performed on each mouse on the final day of testing. The platform was withdrawn and each mouse was placed at the same starting position in the pool and allowed to swim for 60 s. The investigator then recorded the time spent in the target quadrant, where the platform had previously been located. The latter measurements were interpreted as spatial memory.

[3] = test system: MCAO/R mice, brain homogenate; experiment: Biochemical kits, oxidative stress in brain (SOD, MDA, LPO, glutathione); conditions: 48 h
Protocol: […] The brain was collected, weighed, and placed in a homogenizer for homogenization. Using 0.9% normal saline (NS) as a homogenization medium, a 10% tissue homogenate was prepared, centrifuged at 3500 rpm for 10 min, and the supernatant was taken. […] Kits for ATP, glutamic acid, glutathione, lactic acid, LPO, MDA, and SOD were purchased from Nanjingjiancheng Bioengineering Institute, and were measured as previously described for specification.

MCAO/R mice [4] = experiment: Transmission electron microscopy of BBB
Protocol: Frontal cortex samples were isolated from mice with stroke and fixed in 2% glutaraldehyde and 4% paraformaldehyde in 0.1 M sodium cacodylate (pH 7.4), treated with 10% gelatin solution in sodium cacodylate buffer, and incubated with 2% osmium tetroxide. Sections were cut using a Leica EM TP ultramicrotome (Leica Microsystems) at 40 nm and placed within grids stained with a 1:1 mix of 3% uranyl acetate and 50% acetone for 30–60 s. Grids were imaged with a JEM 1400 transmission electron microscope (JEOL) at ×1200 for low magnification and ×12,000 for high magnification (unless otherwise noted) using Gatan Microscopy Suite software (Gatan).

With “Gly-Arg-Pro-Hyp-Gly-Phe-Ser-Pro-Phe-Arg-Ile-Asp [VK, Vespakinin-M]” the “grip test (Fig.2g)” value (MCAO/R mice [1]; VK 150 µg/kg i.p.) was 103 and 99.5 and 136 and 78 and 61.1 and 99 and 115.7, the “grip test (Fig.2g)” value (MCAO/R mice [1]; VK 300 µg/kg i.p.) was 116.6 and 26 and 19.5 and 56.2 and 63.2 and 77 and 80.9 and the “sensorimotor function, grip test” value (MCAO/R mice [1]; VK 150 and 300 µg/kg i.p.) was “improved functional performance and ameliorated the sensorimotor asymmetry”. For the same substance, the “Morris water maze latency to the platform (sheet block Fig.2h)” value (“Morris water maze latency” below) (MCAO/R mice [2]; 11d after MCAO/R, VK 150 µg/kg, 60 s maximum) was 46.96 and 55.37 and 56.98 and 48.52 and 58.61 and 60 and 58.12, the “Morris water maze latency” value (MCAO/R mice [2]; 11d after MCAO/R, VK 300 µg/kg, 60 s maximum) was 51 and 55.8 and the “Morris water maze latency” value (MCAO/R mice [2]; 12d after MCAO/R, VK 150 µg/kg) was 35.17 and 36.55 and 38.29 and 31.14 and 35.03 and 46.91 and 50.97. For the same substance, the “Morris water maze latency” value (MCAO/R mice [2]; 12d after MCAO/R, VK 300 µg/kg) was 43.25 and 49.34 and 39.87 and 44.13 and 49.62 and 33.65, the “Morris water maze latency” value (MCAO/R mice [2]; 13d after MCAO/R, VK 150 µg/kg) was 12.69 and 22.64 and 25.57 and 20.24 and 33.84 and 30.46 and 33.85 and the “Morris water maze latency” value (MCAO/R mice [2]; 13d after MCAO/R, VK 300 µg/kg) was 24.06 and 46.35 and 29.58 and 38.44 and 42.39 and 44. For the same substance, the “Morris water maze latency” value (MCAO/R mice [2]; 14d after MCAO/R, VK 150 µg/kg) was 8.5 and 15.36 and 20.6 and 19.38 and 15.89 and 10.11 and 29.75, the “Morris water maze latency” value (MCAO/R mice [2]; 14d after MCAO/R, VK 300 µg/kg) was 18.28 and 40.48 and 16.15 and 23.59 and 39.68 and 25.37 and the “spatial learning, escape latency” value (MCAO/R mice [2]; day 11–14 after MCAO/R) was “decreased escape latency”. The “spatial memory, probe trial vs vehicle” value (MCAO/R mice [2]; day 15 after MCAO/R) was “more crossovers and spent more time in the platform quadrant”, the “glutathione in brain, between groups” value [3] was “no obvious difference” and the “MDA and LPO content in brain cortex vs vehicle” value ([3]; VK 150 and 300 µg/kg) was “decreased content of MDA and LPO”. For the same substance, the “SOD activity in brain cortex vs vehicle” value ([3]; VK 150 and 300 µg/kg) was “enhanced SOD activity” and the “BBB integrity, TEM” value (MCAO/R mice [4]) was “could maintain BBB integrity”.
